Laboratory results: US20040167181A1, “Methods of treating conditions associated with an Edg-3 receptor” (priority 2003, published 2004)
Entries after “also recorded” stand apart in the source; their conditions may differ.

Legend:
Dopamine D2L = molecular target: T1, Dopamine D2L (Homo sapiens, UniProt P14416); assay: Radioligand binding assay, Dopamine D2L; settings: Human recombinant CHO cells; 0.16 nM 3H Spiperone; significance criteria ≦50% of max stimulation or inhibition
T1 construct: expressed in transfected cells; host or cells: CHO cells
Method: (§1) In order to test the selectivity of compounds, various radioligand binding assays were performed using numerous non-Edg receptor targets as listed below.
(§2) A radioligand binding assay was performed using adrenergic α1 according to the method of Greengrass and Bremner 1979, Eur. J. Pharmacol. 55:323-326. A radioligand binding assay was performed using adrenergic α2 according to the method of Boyajian and Leslie, 1987, J. Pharmacol. Exp. Ther. 241:1092-1098. A radioligand binding assay was performed using adrenergic β according to the method of Feve et al., 1994, Proc. Natl. Acad. Sci. USA 91:5677-5681. A radioligand binding assay was performed using angiotensin AT2 according to the method of Whitebread et al., 1991, Biochem. Biophys. Res. Comm. 181:1365-1371. A radioligand binding assay was performed using calcium channel Type L, dihydropyridine according to the method of Ehlert et al., 1982, Life Sci. 30:2191-2202. A radioligand binding assay was performed using dopamine D2L according to the method of Bunzo et al., 1988, Nature 336:783-787. A radioligand binding assay was performed using endothelin ETA according to the method of Mihara et al., 1994, J. Pharmacol. Exp Ther. 268:1122-1127. A radioligand binding assay was performed using histamine H1 Central according to the method of Hill et al., 1978, J. Neurochem. 31:997-1004. […]
(§3) Quantitation Method: Radioligand Binding […]

Edg-8 = molecular target: T2, Edg-8 (Homo sapiens, UniProt Q9H228); assay: S1P-stimulated calcium increases in HTC cells expressing Edg-8; type: cell-based; settings: concentrations as high as 10 μM
T2 construct: expressed in transfected cells; host or cells: HTC (rat hepatoma) cells

Edg-2 = molecular target: T3, Edg-2 (Homo sapiens, UniProt Q92633); assay: LPA-stimulated calcium increases in HTC cells expressing Edg-2; type: cell-based; settings: concentrations as high as 10 μM
T3 construct: expressed in transfected cells; host or cells: HTC (rat hepatoma) cells

Edg-6 = molecular target: T4, Edg-6 (Homo sapiens, UniProt O95977); assay: S1P-stimulated calcium increases in HTC cells expressing Edg-6; type: cell-based; settings: concentrations as high as 10 μM
T4 construct: expressed in transfected cells; host or cells: HTC (rat hepatoma) cells
T4 sequence (O95977 1-384): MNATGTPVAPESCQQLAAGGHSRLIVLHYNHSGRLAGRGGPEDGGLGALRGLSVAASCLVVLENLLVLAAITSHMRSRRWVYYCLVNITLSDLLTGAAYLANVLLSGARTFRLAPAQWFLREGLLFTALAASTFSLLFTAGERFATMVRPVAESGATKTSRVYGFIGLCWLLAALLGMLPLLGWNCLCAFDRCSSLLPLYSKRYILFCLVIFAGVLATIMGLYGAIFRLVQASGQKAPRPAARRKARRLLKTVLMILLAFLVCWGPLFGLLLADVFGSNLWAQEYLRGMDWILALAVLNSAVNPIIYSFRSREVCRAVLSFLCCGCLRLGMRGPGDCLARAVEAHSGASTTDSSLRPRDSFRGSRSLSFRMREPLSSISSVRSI

human Edg-3 receptors = molecular target: T5, human Edg-3 receptors (Homo sapiens, UniProt Q99500); assay: Calcium response in HTC cells expressing human Edg-3 receptors; type: cell-based; settings: HTC cells expressing human Edg-3 receptors (also tested in NIH 3T3 cell lines that naturally express Edg-3); FIG. 1
T5 construct: expressed in transfected cells; host or cells: HTC (rat hepatoma) cells
Text: Specific assays for Edg-3 receptor activity are known to those of skill in the art. For example, cells expressing Edg-3 receptors can be contacted with a membrane-permeant calcium sensitive dye such as Fluo-4 AM or a proprietary calcium dye loading kit (e.g., FLIPR Calcium Assay kit, Molecular Devices, Sunnyvale, Calif.). Intracellular calcium is capable of binding to the dye and emitting fluorescent radiation when illuminated at the appropriate wavelength. The cells can thus be illuminated an appropriate wavelength for the dye and any emitting light can be captured by a cooled CCD camera. Changes in fluorescence indicate changes in intracellular calcium resulting from the activation of an Edg-3 receptor. Such changes can be measured advantageously in whole cells in “real-time” (Berridge et al., Nature Reviews 2000, 1:11-21).
The compounds were tested in HTC cells expressing human Edg-3 receptors, as well as in NIH 3T3 cell lines that naturally express Edg-3 receptors. […] The compounds are tested in this recombinant system first, and subsequently tested in cell lines expressing Edg-3 (in addition to other Edg receptors).

Edg-5 = molecular target: T6, Edg-5 (Homo sapiens, UniProt O95136); assay: S1P-stimulated calcium increases in HTC cells expressing Edg-5; type: cell-based; settings: concentrations as high as 10 μM
T6 construct: expressed in transfected cells; host or cells: HTC (rat hepatoma) cells

[1] = test system: Calcium Channel Type L, Dihydropyridine; assay: Radioligand binding assay, Calcium Channel Type L, Dihydropyridine; settings: Wistar Rat cerebral cortex; 0.1 nM 3H Nitrendipine; significance criteria ≦50% of max stimulation or inhibition
Method: as §1, §2, §3

Edg-1 = molecular target: T7, Edg-1 (Homo sapiens, UniProt P21453); assay: S1P-stimulated calcium increases in HTC cells expressing Edg-1; type: cell-based; settings: concentrations as high as 10 μM
T7 construct: expressed in transfected cells; host or cells: HTC (rat hepatoma) cells

Edg-4 = molecular target: T8, Edg-4 (Homo sapiens, UniProt Q9HBW0); assay: LPA-stimulated calcium increases in HTC cells expressing Edg-4; type: cell-based; settings: concentrations as high as 10 μM
T8 construct: expressed in transfected cells; host or cells: HTC (rat hepatoma) cells

[2] = test system: Adrenergic α1, non-selective; assay: Radioligand binding assay, Adrenergic α1, non-selective; settings: Wistar Rat brain; 0.25 nM 3H Prazosin; significance criteria ≦50% of max stimulation or inhibition
Method: as §1, §2, §3

T5 sequence (Q99500 whole entry): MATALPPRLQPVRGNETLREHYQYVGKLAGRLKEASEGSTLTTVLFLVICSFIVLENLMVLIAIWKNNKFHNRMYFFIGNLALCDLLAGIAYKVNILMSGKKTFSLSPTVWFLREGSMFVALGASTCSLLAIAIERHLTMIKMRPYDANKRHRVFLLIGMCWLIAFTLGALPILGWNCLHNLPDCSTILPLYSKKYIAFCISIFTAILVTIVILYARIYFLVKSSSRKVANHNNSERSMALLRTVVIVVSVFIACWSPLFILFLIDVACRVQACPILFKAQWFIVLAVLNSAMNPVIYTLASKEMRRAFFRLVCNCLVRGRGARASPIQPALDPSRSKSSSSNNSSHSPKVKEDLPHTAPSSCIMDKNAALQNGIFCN
T7 sequence (P21453 whole entry): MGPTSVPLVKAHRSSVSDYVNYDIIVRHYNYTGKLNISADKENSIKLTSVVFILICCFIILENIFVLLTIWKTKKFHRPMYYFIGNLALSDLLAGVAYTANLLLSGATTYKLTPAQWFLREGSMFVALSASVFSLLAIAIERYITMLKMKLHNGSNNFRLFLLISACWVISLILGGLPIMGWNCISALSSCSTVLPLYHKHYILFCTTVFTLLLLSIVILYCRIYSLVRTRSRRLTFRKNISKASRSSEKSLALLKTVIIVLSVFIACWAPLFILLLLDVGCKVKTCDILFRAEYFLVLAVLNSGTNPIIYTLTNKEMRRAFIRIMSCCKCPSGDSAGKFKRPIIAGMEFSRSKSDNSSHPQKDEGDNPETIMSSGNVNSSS
T8 sequence (Q9HBW0 whole entry, species assumed): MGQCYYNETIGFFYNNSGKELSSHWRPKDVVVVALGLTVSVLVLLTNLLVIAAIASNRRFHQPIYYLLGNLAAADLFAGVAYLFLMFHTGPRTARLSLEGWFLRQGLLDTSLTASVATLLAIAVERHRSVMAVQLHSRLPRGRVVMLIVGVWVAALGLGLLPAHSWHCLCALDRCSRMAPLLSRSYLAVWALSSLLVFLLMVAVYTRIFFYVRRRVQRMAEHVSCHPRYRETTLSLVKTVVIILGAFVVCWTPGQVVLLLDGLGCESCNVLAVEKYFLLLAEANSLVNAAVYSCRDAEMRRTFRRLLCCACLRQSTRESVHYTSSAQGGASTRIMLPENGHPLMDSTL
T2 sequence (Q9H228 whole entry, species assumed): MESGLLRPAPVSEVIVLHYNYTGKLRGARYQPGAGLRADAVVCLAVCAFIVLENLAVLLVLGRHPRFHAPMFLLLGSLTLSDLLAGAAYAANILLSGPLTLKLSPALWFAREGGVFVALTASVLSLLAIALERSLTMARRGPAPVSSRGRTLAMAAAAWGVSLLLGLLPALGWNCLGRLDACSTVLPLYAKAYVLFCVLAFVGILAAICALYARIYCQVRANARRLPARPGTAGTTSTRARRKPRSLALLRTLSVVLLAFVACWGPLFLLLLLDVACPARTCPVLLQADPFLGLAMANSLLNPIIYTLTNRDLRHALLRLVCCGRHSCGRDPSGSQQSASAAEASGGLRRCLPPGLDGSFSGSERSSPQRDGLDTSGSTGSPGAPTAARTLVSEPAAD
T1 sequence (P14416 whole entry): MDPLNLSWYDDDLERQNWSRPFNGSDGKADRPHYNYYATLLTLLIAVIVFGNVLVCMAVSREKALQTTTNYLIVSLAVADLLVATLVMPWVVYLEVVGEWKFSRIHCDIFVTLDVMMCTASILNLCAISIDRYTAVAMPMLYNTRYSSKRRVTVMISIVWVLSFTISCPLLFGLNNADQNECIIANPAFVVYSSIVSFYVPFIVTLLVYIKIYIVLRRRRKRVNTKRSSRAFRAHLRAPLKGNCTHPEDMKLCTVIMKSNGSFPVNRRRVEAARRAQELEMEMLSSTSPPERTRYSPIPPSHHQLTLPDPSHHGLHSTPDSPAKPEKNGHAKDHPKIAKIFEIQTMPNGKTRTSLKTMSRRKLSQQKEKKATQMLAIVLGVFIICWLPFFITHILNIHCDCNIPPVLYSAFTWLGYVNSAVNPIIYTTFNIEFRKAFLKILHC
T3 sequence (Q92633 whole entry): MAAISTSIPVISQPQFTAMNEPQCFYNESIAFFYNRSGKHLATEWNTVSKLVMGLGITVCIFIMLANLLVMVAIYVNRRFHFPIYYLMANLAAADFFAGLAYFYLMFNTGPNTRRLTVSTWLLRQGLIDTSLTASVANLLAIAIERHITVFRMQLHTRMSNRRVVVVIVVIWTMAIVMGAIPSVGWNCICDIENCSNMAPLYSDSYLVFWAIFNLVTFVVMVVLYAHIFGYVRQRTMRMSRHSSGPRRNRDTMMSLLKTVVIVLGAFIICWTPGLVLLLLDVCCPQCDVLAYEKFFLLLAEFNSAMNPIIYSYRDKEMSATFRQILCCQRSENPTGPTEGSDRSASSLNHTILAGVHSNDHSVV
T6 sequence (O95136 whole entry, species assumed): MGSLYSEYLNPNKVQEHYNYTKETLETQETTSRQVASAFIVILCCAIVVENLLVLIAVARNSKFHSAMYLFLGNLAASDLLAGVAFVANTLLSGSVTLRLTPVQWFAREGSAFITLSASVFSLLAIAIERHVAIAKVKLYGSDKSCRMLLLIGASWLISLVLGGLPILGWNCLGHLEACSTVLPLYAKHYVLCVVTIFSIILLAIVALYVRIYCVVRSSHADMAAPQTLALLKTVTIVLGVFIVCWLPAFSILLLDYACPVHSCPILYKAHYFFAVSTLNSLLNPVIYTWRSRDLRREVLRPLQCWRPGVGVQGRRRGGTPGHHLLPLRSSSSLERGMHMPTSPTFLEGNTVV

Cc1c(-c2ccccc2)nc2ccccc2c1C(=O)NCc1ccc(F)cc1 [Compound 101]
activity in radioligand binding assay (Dopamine D2L): no significant activity | inhibition of S1P-stimulated calcium increases (Edg-8): did not inhibit | inhibition of LPA-stimulated calcium increases (Edg-2): did not inhibit | inhibition of S1P-stimulated calcium increases (Edg-6): did not inhibit | inhibition of Edg-3 stimulated SP1 responses (human Edg-3 receptors): demonstrate inhibition; also recorded: specifically inhibit | inhibition of S1P-stimulated calcium increases (Edg-5): did not inhibit | activity in radioligand binding assay [1]: no significant activity | inhibition of S1P-stimulated calcium increases (Edg-1): did not inhibit | inhibition of LPA-stimulated calcium increases (Edg-4): did not inhibit | activity in radioligand binding assay [2]: no significant activity
